Assay results from patent US12594267B2, “Capsid inhibitors for the treatment of HIV” (Gilead Sciences, Inc., priority 2018, dated 2026).
Like-named read-outs stand apart in the source and are kept apart here.

Legend:
[1] = test system: HIV-1 clinical isolates; experiment: Antiviral activity against HIV-1 clinical isolates in PHA-stimulated human PBMCs; format: cell-based
Experimental: (§1) The antiretroviral activity of the compound of Formula (Ia) was tested against a panel of 22 HIV-1 clinical isolates of HIV-1 and two HIV-2 isolates in freshly isolated, PHA-stimulated human peripheral blood mononuclear cells (PBMCs). The HIV-1 isolates included representative strains from subtypes A, B, C, D, E, F, G, N, O, AE, and AG. Following a 7-day infection, virus production was determined by measuring reverse transcriptase activity in cell-free culture supernatants.

[2] = test system: HIV-2 isolates; experiment: Antiviral activity against HIV-2 isolates in PHA-stimulated human PBMCs; format: cell-based; details: Human immunodeficiency virus 2, PBMC, 168 h, 7-day infection, RT activity readout, mean of triplicate
Experimental: as §1

[3] = test system: PI-resistant viruses; experiment: Cytopathic antiviral assay in MT-2 cells, PI-resistant viruses; format: cell-based, HIV-1; details: Mutant/WT (HXB2D) EC50 ratio, mean ± s.d. of three experiments
Experimental: (§2) The antiviral activity of the compound of Formula (a) was tested against a panel of known HIV-1 mutants resistant to HIV PIs (ATV and DRV), NRTIs (TFV and FTC), NNRTIs (RPV and EFV) or INSTIs (RAL, EVG and DTG) using a cytopathic antiviral assay in MT-2 cells. The compound of Formula (Ia) was fully active against all tested mutants resistant to PIs (Table 11), NRTIs (Table 12), NNRTIs (Table 13) or INSTIs (Table 14).

[4] = test system: WT HXB2D; experiment: Cytopathic antiviral assay in MT-2 cells, wild type HXB2D; format: cell-based, HIV-1; details: Human immunodeficiency virus 1, MT2, read-out: WT HXB2D EC50, MT-2 cells, mean ± s.d. of three experiments in triplicate
Experimental: as §2

[5] = test system: INSTI-resistant viruses; experiment: Cytopathic antiviral assay in MT-2 cells, INSTI-resistant viruses; format: cell-based, HIV-1; details: Mutant/WT (HXB2D) EC50 ratio, mean ± s.d. of three experiments
Experimental: as §2

[6] = Human immunodeficiency virus 1, BAL, PBMC, 168 h, read-out: EC50 in human PBMCs, HIV-1 subtype B isolate Ba-L, 7-day infection, RT activity readout, mean of triplicate
[7] = Human immunodeficiency virus 1, PBMC, 168 h, read-out: EC50 in human PBMCs, HIV-1 CRF01_AE isolate 90TH_CM235, 7-day infection, RT activity readout, mean of triplicate
[8] = Human immunodeficiency virus 1, PBMC, 168 h, read-out: EC50 in human PBMCs, HIV-1 CRF02_AG isolate 01CM0008BBY, 7-day infection, RT activity readout, mean of triplicate
[9] = Human immunodeficiency virus 1, PBMC, 168 h, read-out: EC50 in human PBMCs, HIV-1 CRF02_AG isolate 91DJ263, 7-day infection, RT activity readout, mean of triplicate
[10] = Human immunodeficiency virus 1, PBMC, 168 h, read-out: EC50 in human PBMCs, HIV-1 Group N isolate YBF30, 7-day infection, RT activity readout, mean of triplicate
[11] = Human immunodeficiency virus 1, PBMC, 168 h, read-out: EC50 in human PBMCs, HIV-1 Group O isolate BCF01, 7-day infection, RT activity readout, mean of triplicate
[12] = Human immunodeficiency virus 1, PBMC, 168 h, read-out: EC50 in human PBMCs, HIV-1 subtype A isolate 92UG031, 7-day infection, RT activity readout, mean of triplicate
[13] = Human immunodeficiency virus 1, PBMC, 168 h, read-out: EC50 in human PBMCs, HIV-1 subtype A isolate 92UG037, 7-day infection, RT activity readout, mean of triplicate
[14] = Human immunodeficiency virus 1, PBMC, 168 h, read-out: EC50 in human PBMCs, HIV-1 subtype B isolate 89BZ_167, 7-day infection, RT activity readout, mean of triplicate
[15] = Human immunodeficiency virus 1, PBMC, 168 h, read-out: EC50 in human PBMCs, HIV-1 subtype B isolate 90US_873, 7-day infection, RT activity readout, mean of triplicate
[16] = Human immunodeficiency virus 1, PBMC, 168 h, read-out: EC50 in human PBMCs, HIV-1 subtype B isolate 91US001, 7-day infection, RT activity readout, mean of triplicate
[17] = Human immunodeficiency virus 1, PBMC, 168 h, read-out: EC50 in human PBMCs, HIV-1 subtype B isolate 91US004, 7-day infection, RT activity readout, mean of triplicate
[18] = Human immunodeficiency virus 1, PBMC, 168 h, read-out: EC50 in human PBMCs, HIV-1 subtype B isolate 96TH_NP1538, 7-day infection, RT activity readout, mean of triplicate
[19] = Human immunodeficiency virus 1, PBMC, 168 h, read-out: EC50 in human PBMCs, HIV-1 subtype B isolate JR-CSF, 7-day infection, RT activity readout, mean of triplicate
[20] = Human immunodeficiency virus 1, PBMC, 168 h, read-out: EC50 in human PBMCs, HIV-1 subtype C isolate 92BR025, 7-day infection, RT activity readout, mean of triplicate
[21] = Human immunodeficiency virus 1, PBMC, 168 h, read-out: EC50 in human PBMCs, HIV-1 subtype C isolate 98US_MSC5016, 7-day infection, RT activity readout, mean of triplicate
[22] = Human immunodeficiency virus 1, PBMC, 168 h, read-out: EC50 in human PBMCs, HIV-1 subtype D isolate 92UG001, 7-day infection, RT activity readout, mean of triplicate
[23] = Human immunodeficiency virus 1, PBMC, 168 h, read-out: EC50 in human PBMCs, HIV-1 subtype D isolate 98UG_57128, 7-day infection, RT activity readout, mean of triplicate
[24] = Human immunodeficiency virus 1, PBMC, 168 h, read-out: EC50 in human PBMCs, HIV-1 subtype E isolate CMU02, 7-day infection, RT activity readout, mean of triplicate
[25] = Human immunodeficiency virus 1, PBMC, 168 h, read-out: EC50 in human PBMCs, HIV-1 subtype E isolate CMU08, 7-day infection, RT activity readout, mean of triplicate
[26] = Human immunodeficiency virus 1, PBMC, 168 h, read-out: EC50 in human PBMCs, HIV-1 subtype F isolate 93BR020, 7-day infection, RT activity readout, mean of triplicate
[27] = Human immunodeficiency virus 1, PBMC, 168 h, read-out: EC50 in human PBMCs, HIV-1 subtype G isolate JV1083, 7-day infection, RT activity readout, mean of triplicate
[28] = Human immunodeficiency virus 1, PBMC, read-out: HIV-1 EC50 Mean ± s.d., mean over the 22 HIV-1 clinical isolates, human PBMCs
[29] = Human immunodeficiency virus 1, PBMC, read-out: HIV-1 EC50 Median, median over the 22 HIV-1 clinical isolates, human PBMCs
[30] = Human immunodeficiency virus 1, PBMC, read-out: HIV-1 EC50 Range, range over the 22 HIV-1 clinical isolates, human PBMCs

| SMILES | EC50 [1, 6] [nM] | EC50 [1, 7] [nM] | EC50 [1, 8] [nM] | EC50 [1, 9] [nM] | EC50 [1, 10] [nM] | EC50 [1, 11] [nM] | EC50 [1, 12] [nM] | EC50 [1, 13] [nM] | EC50 [1, 14] [nM] | EC50 [1, 15] [nM] | EC50 [1, 16] [nM] | EC50 [1, 17] [nM] | EC50 [1, 18] [nM] | EC50 [1, 19] [nM] | EC50 [1, 20] [nM] | EC50 [1, 21] [nM] | EC50 [1, 22] [nM] | EC50 [1, 23] [nM] | EC50 [1, 24] [nM] | EC50 [1, 25] [nM] | also measured |
| --- | --- | --- | --- | --- | --- | --- | --- | --- | --- | --- | --- | --- | --- | --- | --- | --- | --- | --- | --- | --- | --- |
| Cc1cn([C@H]2C[C@H](N=[N+]=[N-])[C@@H](CO)O2)c(=O)[nH]c1=O [AZT, zidovudine] | 43.2 | 10.7 | 8.21 | 34.9 | 8.96 | 10.5 | 51.6 | 21.7 | 10.1 | 13.2 | 20.3 | 19.7 | 4.1 | 4.53 | 16.9 | 37.8 | 7.29 | 6.61 | 8.13 | 34.1 | EC50 [1, 26]: 25.1 nM; EC50 [1, 27]: 20.5 nM; EC50 [1, 28]: 19 ± 13.5 nM; EC50 [1, 29]: 15.1 nM; EC50 [1, 30]: 4.1 to 51.6 nM; EC50 ([2]; HIV-2 isolate CBL-20): 14.3 nM; EC50 ([2]; HIV-2 isolate CDC310319): 28.8 nM |
| CC(C)CN(C[C@@H](O)[C@H](Cc1ccccc1)NC(=O)O[C@H]1CO[C@H]2OCC[C@H]21)S(=O)(=O)c1ccc(N)cc1 [DRV, darunavir] | – | – | – | – | – | – | – | – | – | – | – | – | – | – | – | – | – | – | – | – | EC50 Fold-Change ([3]; G48V/V82A/L90M): 0.5 ± 0.2; EC50 Fold-Change ([3]; G48V/V82S): 0.3 ± 0.1; EC50 Fold-Change ([3]; I50V): 31.6 ± 22.8; EC50 Fold-Change ([3]; I84V/L90M): 1.9 ± 0.9; EC50 ([4]; PI-resistance panel (Table 11)): 2.82 ± 0.47 nM |
| C[C@@H]1CCO[C@H]2Cn3cc(C(=O)NCc4ccc(F)cc4F)c(=O)c(O)c3C(=O)N12 [DTG, dolutegravir] | 0.4 | 1.02 | 1.04 | 0.45 | 0.54 | 0.64 | 0.63 | 0.47 | 1.18 | 0.82 | 0.53 | 0.4 | 0.4 | 0.41 | 0.91 | 0.77 | 1.09 | 0.7 | 0.81 | 0.96 | EC50 Fold-Change ([5]; E92Q/N155H): 3.0 ± 1.1; EC50 Fold-Change ([5]; E138K/Q148K): 7.3 ± 4.1; EC50 Fold-Change ([5]; G140S/Q148R): 6.9 ± 3.1; EC50 Fold-Change ([5]; N155H/Q148R): 1.5 ± 0.6; EC50 Fold-Change ([5]; R263K/M50I): 2.8 ± 2.1; EC50 Fold-Change ([5]; Y143R): 0.8 ± 0.3; EC50 [1, 26]: 0.38 nM; EC50 [1, 27]: 0.93 nM; EC50 [1, 28]: 0.7 ± 0.26 nM; EC50 [1, 29]: 0.67 nM; EC50 [1, 30]: 0.38 to 1.18 nM; EC50 ([2]; HIV-2 isolate CBL-20): 0.36 nM; EC50 ([2]; HIV-2 isolate CDC310319): 1.81 nM; EC50 ([4]; INSTI-resistance panel (Table 14)): 2.24 ± 0.46 nM |
